Test results: patent publication US10307463B2 (priority 2003, dated 2019)

Tests used:
in vivo [1] = settings: rat
dogs = settings: dog, in vivo
[2] = pH 4
in vivo [3] = settings: dog
GI transit = settings: rat, in vivo
[4] = tested on: gross behavioral and cardiovascular effects; settings: rat, in vivo
[5] = tested on: respiratory minute volume responses to CO2; settings: rat, in vivo
rats = settings: rat, in vivo

SMILES: CSCC[C@@H]1NC(=O)[C@H](CC(C)C)NC(=O)[C@H](CCCNC(=N)N)NC(=O)[C@H](CO)NC(=O)[C@@H]2CSSC[C@@H]3NC(=O)[C@H](CO)NC(=O)CNC(=O)[C@H]([C@@H](C)O)NC(=O)[C@H](CSSC[C@H](N)C(=O)N[C@@H](CCCCN)C(=O)NCC(=O)N[C@@H](CCCCN)C(=O)NCC(=O)N[C@@H](C)C(=O)N[C@@H](CCCCN)C(=O)N2)NC(=O)[C@H](CSSC[C@@H](C(N)=O)NC(=O)[C@H](CCCCN)NC(=O)CNC(=O)[C@H](CO)NC(=O)[C@H](CCCNC(=N)N)NC3=O)NC(=O)[C@H](CC(=O)O)NC(=O)[C@H](Cc2ccc(O)cc2)NC1=O [ziconotide]
- level at 672 h (in vivo [1]): < 4 ng/mL
- body weight, food intake or clinical pathology parameters (dogs): no treatment-related changes
- granuloma formation at the catheter tip (dogs): no granuloma formation
- mean plasma drug level relative to human (dogs): ~10 fold
- moribund euthanasia due to CNS effects (tremors, shaking-behavior, ataxia) (dogs): 4/16
- target organ toxicity at termination (dogs): nor was any target organ toxicity identified
- stability in solution [2]: stable at 45 °C for weeks
- level at 672 h (in vivo [3]): < 4 ng/mL
- GI transit (GI transit): does not itself affect GI tract motility
- gross behavioral and cardiovascular effects [4]: well tolerated
- respiratory depression, subacute administration [5]: did not induce respiratory depression
- respiratory minute volume responses to CO2 / acute respiratory depression [5]: did not depress
- body weight, food intake or clinical pathology parameters (rats): no treatment-related changes
- mean plasma drug level relative to human (rats): approximately 3 fold
- target organ toxicity at termination (rats): nor was any target organ toxicity identified
